Source: patent publication US20260198495A1, “BINARY INSECTICIDE COMPOSITION AND USE THEREOF” (SHENYANG SINOCHEM AGROCHEMICALS R & D CO., LTD., priority 2022, published 2026)
≈ marks a conversion by molar mass, not a printed value.

Tests used:
Assay type in all cases: in vivo
[1] = test system: Aphis citricola van der Goot nymphs; assay: Joint toxicity of I-72 + nicotine, Example 72, Table 72; conditions: A = compound I-72, B = nicotine, apple leaf spraying, 48 hours
Procedure: Test target: Aphis citricola van der Goot nymphs.
(§1) Preparation of the pesticide solution: according to different test requirements, the test samples were accurately weighed respectively with an electronic analytical balance. The technical pesticides were dissolved in acetone, and then diluted with 0.1% Tween 80 water into a series of pesticide solutions with a certain concentration gradient according to the experimental design dosage.
(§2) Experimental method: first, apple leaves with uniform and consistent Aphis citricola van der Goot were selected, with about 30-40 insects on each leaf. Then, they were evenly sprayed with the pesticide solution in the order from low dosage to high dosage according to the experimental design, with 1.5 mL for each leaf and 3 replicates for each treatment. In addition, a blank control was set up.
(§3) The treated test materials were placed in an observation room, and the temperature, humidity and illumination of the observation room could be adjusted as needed. The number of dead and live insects was investigated 48 hours later. […] Then, the co-toxicity coefficient of each ratio was calculated using the Sun Y-P method to evaluate the mixing effect (the same as in Example 1).

[2] = test system: Aphis gossypii Glover nymphs; assay: Joint toxicity of I-72 + spiropidion, Example 28, Table 28; conditions: Aphis gossypii; A = compound I-72, B = spiropidion; cotton leaf spraying; 48 hours; read-out: LC50
Procedure: Test target: Aphis gossypii Glover nymphs, a sensitive strain reared indoors.
as §1
as §2, with “cotton” for “apple”, “gossypii” for “citricola van der Goot”
as §3

[3] = test system: 3rd-instar larvae of Agrotis ipsilon (Rottemberg); assay: whole plant or invertebrate; conditions: Agrotis ipsilon; A = compound I-72, B = metalaxyl-M; insect-dipping; 72 hours; read-out: LC50
Procedure: Test conditions: temperature: 24-26° C., humidity: RH 60%, and illumination: L:D=14:10
as §1
The target insects were dipped into the pesticide solution for 10 s and then taken out. Excess pesticide solution was absorbed with filter paper. […] A treatment without the pesticide was set as the blank control.
The number of dead and live insects was investigated 72 hours later. The corrected mortality rate was calculated using the Abbott's formula, and statistical analysis was performed with the DPS data processing software to obtain the toxicity regression equation and LC50 value of each single test pesticide and each mixture of different ratios.

[4] = test system: 3rd-instar larvae of Chilo suppressalis (Walker); assay: Joint toxicity of I-72 + methoxyfenozide, Example 53, Table 53; conditions: A = compound I-72, B = methoxyfenozide, rice stem dipping, 72 hours, read-out: LC50
Procedure: Test target: 3rd-instar larvae of Chilo suppressalis (Walker).
as §1
(§4) Experimental method: first, tender rice stems were selected and dipped in the prepared pesticide solution for 10 s in the order from low dosage to high dosage according to the experimental design. After natural air-drying in the shade, they were placed in a 9-cm-diameter Petri dish with filter paper, and uniform and healthy test insects were introduced, with 10 insects for each treatment and 3 replicates for each treatment. In addition, a blank control was set up.
as §3, with “72” for “48”

[5] = test system: 3rd-instar larvae of Ostrinia furnacalis Guenee; assay: Joint toxicity of I-72 + lambda-cyhalothrin, Example 42, Table 42; conditions: A = compound I-72, B = lambda-cyhalothrin, corn stem dipping, 72 hours, read-out: LC50
Procedure: Test target: 3rd-instar larvae of Ostrinia furnacalis Guenee.
as §1
as §4, with “corn” for “rice”
as §3, with “72” for “48”

[6] = test system: 2nd-instar larvae of Spodoptera exigua Hübner; assay: Joint toxicity of I-72 + lufenuron, Example 54, Table 54; conditions: foliar, A = compound I-72, B = lufenuron, cabbage leaf dipping, 72 hours, read-out: LC50
Procedure: Test target: 2nd-instar larvae of Spodoptera exigua Hübner.
as §1
as §4, with “cabbage leaves” for “tender rice stems”
as §3, with “72” for “48”

[7] = test system: 3rd-instar larvae of Spodoptera frugiperda; assay: Joint toxicity of I-72 + spinosad, corn leaf dipping, Example 10, Table 10; conditions: Spodoptera frugiperda, foliar, 72 h, A = compound I-72, B = spinosad, read-out: LC50
Source text: Test subject: 3rd-instar larvae of Spodoptera frugiperda, a sensitive strain reared indoors.
Experimental method: the dipping method was adopted. The corn leaves cultivated in the greenhouse were taken, cut into leaf segments of 5 cm long, dipped in the prepared pesticide solution for 10 s, and then cut into small pieces of 1.5 cm×1.5 cm after natural air-drying in the shade. These pieces were placed in a 24-well culture plate, and the standard test insects were introduced, with 48 insects for each treatment. The treated test insects were placed in an observation room under certain conditions. The reaction of the test insects was regularly observed, and the number of dead and live insects was investigated 72 h later.
The test conditions, the preparation of the pesticide solution and the evaluation method were the same as those in Example 1.

[8] = test system: Nilaparvata lugens (Stal) nymphs; assay: Joint toxicity of I-72 + imidacloprid, Example 70, Table 70; conditions: A = compound I-72, B = imidacloprid, potted-seedling spraying, 72 hours, read-out: LC50
Procedure: (§5) Test target: Nilaparvata lugens (Stal) nymphs, a sensitive strain reared indoors.
as §1
(§6) Experimental method: the activity of the mixture against the Nilaparvata lugens (Stal) nymphs was determined by adopting the potted-seedling spraying method. First, rice seedlings were planted in culture pots. Uniform spraying was performed with the pesticide solution in the order from low dosage to high dosage according to the experimental design, with 2 mL for each seedling. Then, Nilaparvata lugens nymphs of uniform size were transferred onto the rice seedlings, with 3 replicates for each treatment. In addition, a blank control was set up.
as §3, with “72” for “48”

[9] = test system: Nilaparvata lugens (Stal) nymphs; assay: Joint toxicity of I-72 + etofenprox, Example 44, Table 44; conditions: A = compound I-72, B = etofenprox, potted rice seedling spraying, 72 hours, read-out: LC50
Procedure: as §5, §1, §6
as §3, with “72” for “48”

SMILES: CN(C(=O)c1ccc2c(c1)OC(F)(F)O2)c1cccc(C(=O)Nc2c(Br)cc(C(F)(C(F)(F)F)C(F)(F)F)cc2OC(F)F)c1F [Compound I-72]
- LC50 [1]: 3.06 µg/mL
- LC50 [2]: 3.19 µg/mL
- LC50 [3]: 0.265 µg/mL (≈ 0.357 µM)
- LC50 [4]: 1.02 µg/mL
- LC50 [5]: 0.805 µg/mL
- LC50 [6]: 0.273 µg/mL
- LC50 [7]: 0.0777 µg/mL
- LC50 [8]: 243 µg/mL
- LC50 [9]: 282 µg/mL
